Assay results as given in article PMC7914897, “Cytotoxic Potential of a-Azepano- and 3-Amino-3,4-SeCo-Triterpenoids” (International Journal of Molecular Sciences, 2021).

Assays:
[1] = test system: A549/ATCC (NSC lung cancer); assay: NCI-60 screen (SRB, 48 h); conditions: Homo sapiens; for GI50: A549
SNB-19 (CNS cancer) = assay: NCI-60 screen (SRB, 48 h); conditions: Homo sapiens; for GI50: SNB-19; for IC (TGI): SNB-19, 48 h, read-out: TGI
SK-MEL-2 (Melanoma) = assay: NCI-60 screen (SRB, 48 h); conditions: Homo sapiens; for GI50: SK-MEL-2; for IC (TGI): SK-MEL-2, 48 h, read-out: TGI; for CC50: SK-MEL-2, read-out: LC50
Leukemia subpanel = assay: cells; conditions: Homo sapiens; for IC (TGI): 48 h, read-out: TGI MG_MID; for GI50: read-out: GI50 MG_MID
PC-3 (Prostate cancer) = assay: NCI-60 screen (SRB, 48 h); conditions: Homo sapiens; for GI50: PC-3
HCT-15 (Colon cancer) = assay: NCI-60 screen (SRB, 48 h); conditions: Homo sapiens; for GI50: HCT-15; for IC (TGI): HCT-15, 48 h, read-out: TGI
Prostate cancer subpanel = assay: NCI-60 screen, subpanel; conditions: Homo sapiens; for IC (TGI): 48 h, read-out: TGI MG_MID; for GI50: read-out: GI50 MG_MID
RXF 393 (Renal cancer) = assay: NCI-60 screen (SRB, 48 h); conditions: Homo sapiens
IGROV1 (Ovarian cancer) = assay: NCI-60 screen (SRB, 48 h); conditions: Homo sapiens; for GI50: IGROV-1; for IC (TGI): IGROV-1, 48 h, read-out: TGI
[2] = test system: NIH 3T3 (non-malignant mouse fibroblasts); assay: SRB cytotoxicity assay, 72 h; assay type: cell-based; conditions: Mus musculus, NIH3T3; NIH 3T3, 72 h, cut-off 30 µM; read-out: EC50
Protocol: The cytotoxicity of compounds 1–20 was evaluated by means of a colorimetric sulforhodamine B (SRB) assay. For all compounds, the EC50 values were determined for the human tumor cell lines A375 (malignant melanoma), HT29 (colorectal carcinoma), MCF-7 (breast carcinoma), A2780 (ovarian carcinoma), FaDu (hypopharyngeal carcinoma), and NIH 3T3 (non-malignant mouse fibroblasts).
In short, exponentially growing cells were seeded into 96-well plates on day 0 at the appropriate cell densities to prevent confluence of the cells during the period of experiment. After 24 h, the cells were treated with serial dilutions of the compounds (0–30 µM) for 72 h. The final concentration of DMSO never exceeded 0.5%, which was non-toxic to the cells. After a 72 h treatment, the supernatant medium from the 96-well plates was discarded, and the cells were fixed with 10% TCA. For a thorough fixation, the plates were allowed to rest at 4 °C. After fixation, the cells were washed in a strip washer. The washing was done four times with water using alternate dispensing and aspiration procedures. The plates were then dyed with 100 µL of 0.4% SRB for about 20 min. After dying, the plates were washed with 1% acetic acid to remove the excess of the dye and allowed to air-dry overnight. Tris base solution (200 µL, 10 mM) was added to each well and absorbance was measured at λ = 570 nm (using a 96 well plate reader, Tecan Spectra, Crailsheim, Germany). The percentages of surviving cells relative to untreated controls were determined.

KM12 (Colon cancer) = assay: NCI-60 screen (SRB, 48 h); conditions: Homo sapiens; for GI50: KM12; for IC (TGI): KM12, 48 h, read-out: TGI
MALME-3M (Melanoma) = assay: NCI-60 screen (SRB, 48 h); conditions: Homo sapiens
LOX IMVI (Melanoma) = assay: NCI-60 screen (SRB, 48 h); assay type: cell-based; conditions: Homo sapiens; for GI50: read-out: GI50
[3] = test system: NCI/ADR-RES (Ovarian cancer); assay: NCI-60 screen (SRB, 48 h); conditions: Homo sapiens
MCF7 (Breast cancer) = assay: NCI-60 screen (SRB, 48 h); conditions: Homo sapiens; for GI50: MCF7; for IC (TGI): MCF7, 48 h, read-out: TGI
SN12C (Renal cancer) = assay: NCI-60 screen (SRB, 48 h); conditions: Homo sapiens; for IC (TGI): 48 h, read-out: TGI
UACC-62 (Melanoma) = assay: NCI-60 screen (SRB, 48 h); conditions: Homo sapiens; for GI50: UACC-62; for IC (TGI): UACC-62, 48 h, read-out: TGI; for CC50: UACC-62, read-out: LC50
[4] = test system: MDA-MB-31/ATCC (Breast cancer); assay: NCI-60 screen (SRB, 48 h); conditions: Homo sapiens; for IC (TGI): 48 h, read-out: TGI
HS 578T (Breast cancer) = assay: NCI-60 screen (SRB, 48 h); conditions: Homo sapiens
HCT-116 (Colon cancer) = assay: NCI-60 screen (SRB, 48 h); conditions: Homo sapiens; for GI50: HCT-116; for activity at 10 µM / IC (TGI): HCT-116, 48 h; for activity at 10 µM: read-out: Growth % of the Most Sensitive Cell Lines; for IC (TGI): read-out: TGI
TK-10 (Renal cancer) = assay: NCI-60 screen (SRB, 48 h); conditions: for GI50: TK-10; for IC (TGI): TK-10, 48 h, read-out: TGI

`C=C(C)[C@@H]1CC[C@]2(C(=O)N[C@H](CO)Cc3ccccc3)CC[C@]3(C)[C@H](CC[C@@H]4[C@@]5(C)CCCNC(C)(C)[C@@H]5CC[C@]43C)[C@@H]12` [Compound 11] showed a GI50 [1] of 960 nM, an IC (TGI) ([1]; A549, 48 h, read-out: TGI) of 2450 nM and a GI50 (SNB-19 (CNS cancer)) of 1170 nM. For the same molecule, the IC (TGI) (SNB-19 (CNS cancer)) was 2720 nM, the GI50 (SK-MEL-2 (Melanoma)) was 1720 nM and the IC (TGI) (SK-MEL-2 (Melanoma)) was 3180 nM. For the same molecule, the CC50 (SK-MEL-2 (Melanoma)) was 5870 nM, the IC (TGI) (Leukemia subpanel) was 1030 nM and the GI50 (Leukemia subpanel) was 340 nM. For the same molecule, the GI50 (PC-3 (Prostate cancer)) was 1160 nM, the IC (TGI) (PC-3 (Prostate cancer); PC-3, 48 h, read-out: TGI) was 2620 nM and the GI50 (HCT-15 (Colon cancer)) was 970 nM. For the same molecule, the IC (TGI) (HCT-15 (Colon cancer)) was 2320 nM, the IC (TGI) (Prostate cancer subpanel) was 2750 nM and the GI50 (Prostate cancer subpanel) was 1320 nM. For the same molecule, the GI50 (RXF 393 (Renal cancer); RXF 393) was 1670 nM, the IC (TGI) (RXF 393 (Renal cancer); RXF 393, 48 h, read-out: TGI) was 3270 nM and the GI50 (IGROV1 (Ovarian cancer)) was 1830 nM. The IC (TGI) (IGROV1 (Ovarian cancer)) was 3610 nM, the EC50 [2] was 1230 ± 300 nM and the GI50 (KM12 (Colon cancer)) was 1470 nM. The IC (TGI) (KM12 (Colon cancer)) was 2910 nM, the CC50 (KM12 (Colon cancer); KM12, read-out: LC50) was 5780 nM and the GI50 (MALME-3M (Melanoma)) was 1420 nM. It also gave an IC (TGI) (LOX IMVI (Melanoma); 48 h) of 2420 nM, a GI50 (LOX IMVI (Melanoma)) of 1070 nM and a GI50 [3] of 1350 nM. It also gave an IC (TGI) ([3]; 48 h, read-out: TGI) of 3010 nM, a GI50 (MCF7 (Breast cancer)) of 490 nM and an IC (TGI) (MCF7 (Breast cancer)) of 2060 nM. It also gave a GI50 (SN12C (Renal cancer)) of 1810 nM, an IC (TGI) (SN12C (Renal cancer)) of 3550 nM and a GI50 (UACC-62 (Melanoma)) of 1760 nM. For the same molecule, the IC (TGI) (UACC-62 (Melanoma)) was 3390 nM, the CC50 (UACC-62 (Melanoma)) was 6520 nM and the GI50 [4] was 1340 nM. For the same molecule, the IC (TGI) [4] was 2770 nM, the GI50 (HS 578T (Breast cancer)) was 1610 nM and the IC (TGI) (HS 578T (Breast cancer); 48 h, read-out: TGI) was 3780 nM. The GI50 (HCT-116 (Colon cancer)) was 310 nM, the activity at 10 µM (HCT-116 (Colon cancer)) was -94.8% and the IC (TGI) (HCT-116 (Colon cancer)) was 1250 nM. It also gave a GI50 (TK-10 (Renal cancer); Homo sapiens) of 1610 nM, an IC (TGI) (TK-10 (Renal cancer); Homo sapiens) of 3080 nM and a CC50 (TK-10 (Renal cancer); Homo sapiens, TK-10, read-out: LC50) of 5890 nM. For the same molecule, the “Growth % of the Most Sensitive Cell Lines” value (TK-10 (Renal cancer); TK-10, 1 dose 10 µM) was −94.69%.

`C[C@H]1[C@H](C)CC[C@]2(C(=O)Nc3ccc4ncccc4c3)CC[C@]3(C)C(=CC[C@@H]4[C@@]5(C)CCCNC(C)(C)[C@@H]5CC[C@]43C)[C@H]12` [Compound 14] showed a GI50 [1] of 1810 nM, a GI50 (SNB-19 (CNS cancer)) of 1850 nM and an IC (TGI) (SNB-19 (CNS cancer)) of 3400 nM. It also gave a GI50 (SK-MEL-2 (Melanoma)) of 1840 nM, an IC (TGI) (SK-MEL-2 (Melanoma)) of 3430 nM and a CC50 (SK-MEL-2 (Melanoma)) of 6420 nM. For the same molecule, the IC (TGI) (Leukemia subpanel) was 3630 nM, the GI50 (Leukemia subpanel) was 1580 nM and the GI50 (PC-3 (Prostate cancer)) was 1760 nM. The GI50 (HCT-15 (Colon cancer)) was 1590 nM, the IC (TGI) (HCT-15 (Colon cancer)) was 3150 nM and the IC (TGI) (Prostate cancer subpanel) was 3280 nM. It also gave a GI50 (Prostate cancer subpanel) of 1760 nM, a GI50 (IGROV1 (Ovarian cancer)) of 1700 nM and an IC (TGI) (IGROV1 (Ovarian cancer)) of 3370 nM. The CC50 (IGROV1 (Ovarian cancer); IGROV-1, read-out: LC50) was 6690 nM, the EC50 [2] was 1690 ± 100 nM and the GI50 (KM12 (Colon cancer)) was 1890 nM. The IC (TGI) (KM12 (Colon cancer)) was 3630 nM, the GI50 (MALME-3M (Melanoma)) was 1660 nM and the GI50 (LOX IMVI (Melanoma)) was 1780 nM. The GI50 [3] was 1910 nM, the GI50 (MCF7 (Breast cancer)) was 1560 nM and the IC (TGI) (MCF7 (Breast cancer)) was 3250 nM. For the same molecule, the GI50 (SN12C (Renal cancer)) was 1730 nM, the IC (TGI) (SN12C (Renal cancer)) was 3330 nM and the GI50 (UACC-62 (Melanoma)) was 1740 nM. It also gave an IC (TGI) (UACC-62 (Melanoma)) of 3230 nM, a CC50 (UACC-62 (Melanoma)) of 6000 nM and a GI50 [4] of 1800 nM. It also gave an IC (TGI) [4] of 3400 nM, a GI50 (HS 578T (Breast cancer)) of 1960 nM and a GI50 (HCT-116 (Colon cancer)) of 1600 nM. It also gave an activity at 10 µM (HCT-116 (Colon cancer)) of -100%, an IC (TGI) (HCT-116 (Colon cancer)) of 3110 nM and a CC50 (HCT-116 (Colon cancer); HCT-116, read-out: LC50) of 6050 nM. The GI50 (TK-10 (Renal cancer); Homo sapiens) was 1690 nM and the IC (TGI) (TK-10 (Renal cancer); Homo sapiens) was 3200 nM.
